Data from patent publication US20080305186A1, “Method and Composition for the Treatment of Cardiac Hypertrophy” (BOARD OF REGENTS, THE UNIVERSITY OF TEXAS SYSTEM, priority 2007, published 2008).

Tested on: cardiac gene expression
Assay: Microarray analysis of cardiac gene expression (GeneChip Mouse Genome 430 2.0)
Format: in vivo, mice
Procedure: Microarray Sample Preparation and Analysis. Animal hearts were rapidly removed, and the atria and right ventricles were cut and immediately plunged into TRIzol Reagent (Life Technologies). Total RNA was isolated following the manufacturer's instructions, purified by phenol-chloroform extraction and then ethanol precipitation, and 20 μg further processed for microarray analysis. Briefly, cDNA synthesis, in vitro transcription, and labeling and fragmentation to produce the oligonucleotide probes were performed as instructed by the GeneChip manufacturer (Affymetrix). The probes were first hybridized to a test array (Affymetrix) and then to the GeneChip Mouse Genome 430 2.0 Array, using the GeneChip Hybridization Oven 640. The chips were washed in a GeneChip Fluidics Station 450 (Affymetrix), and the results were visualized with a GeneChip G7 scanner (Affymetrix). RMA normalization, pairwise comparisons, Student's t test and Benjamini and Hochberg correction were subsequently performed using GeneSifter (VizX Labs, Seattle, Wash.) and Spotfire DecisionSite 8.3 (Spotfire, Inc., Somerville, Mass.).
Effects on Gene Expression Profile. […] One mouse heart was used for each array, and was performed in triplicate, generating a total of 12 arrays. GeneSifter was used to perform RMA normalization, pairwise comparisons of averaged signal intensity values, and Student's t-test with Benjamini and Hochberg correction, and Spotfire was used to perform pairwise comparisons. […] Additionally, genes that were altered between any two N or cardiac hypertrophy samples were removed, as these alterations most likely represented normal variations between mice.

[1] = heart, drug + isoproterenol vs isoproterenol only
[2] = mouse heart, vs isoproterenol only (CH), CH vs normal 1.6
[3] = mouse heart, vs isoproterenol only (CH), CH vs normal 1.7
[4] = mouse heart, vs isoproterenol only (CH), CH vs normal 1.8
[5] = mouse heart, vs isoproterenol only (CH), CH vs normal 1.9
[6] = mouse heart, vs isoproterenol only (CH), CH vs normal 2.0
[7] = mouse heart, vs isoproterenol only (CH), CH vs normal 2.1
[8] = mouse heart, vs isoproterenol only (CH), CH vs normal 2.2

`C[C@H]1c2cccc(O)c2C(=O)C2=C(O)[C@]3(O)C(=O)C(C(N)=O)=C(O)[C@@H](N(C)C)[C@@H]3[C@@H](O)[C@@H]21` [doxycycline] was tested, and the “FC EGF, latrophilin seven transmembrane domain containing 1 (Eltd1)” value (GenBank NM_133222, vs mice given only isoproterenol) was −1.7, the “FC ERBB receptor feedback inhibitor 1 (Errifi1)” value (GenBank NM_133753, vs mice given only isoproterenol) was −2.7 and the “FC F-box only protein 31 (Fboxo31)” value (GenBank NM_133765, vs mice given only isoproterenol) was −2.4. The “FC Ras homolog gene family, member U (Arhu) (Rhou)” value (GenBank NM_133955, vs mice given only isoproterenol) was −2.5, the “FC Peroxisomal biogenesis factor 12 (Pex12)” value (GenBank NM_134025, vs mice given only isoproterenol) was −2.4 and the “FC PHD finger protein 21A (Phf21a)” value (GenBank NM_138755, vs mice given only isoproterenol) was 2.1. For the same compound, the “FC Glutamate-ammonia ligase (Glu1)” value (GenBank U09114, vs mice given only isoproterenol) was −3.5, the “FC Gem GTPase (Gem)” value (GenBank U10551, vs mice given only isoproterenol) was −2.8 and the “FC P19-protein tyrosine phosphatase (Ptpn12)” value (GenBank X63440, vs mice given only isoproterenol) was −1.5. The “Cyclin G2 (Ccng2), Microarray FC” value [1] was −3.1 FC, the “Cyclin-dependent kinase inhibitor 1A (p21) (Cdkn1a), Microarray FC” value [1] was −6.5 FC and the “Cytokine inducible SH2-containing protein 3 (Socs3), Microarray FC” value [1] was −4.9 FC. The “DNA-damage-inducible transcript 4 (Ddit4), Microarray FC” value [1] was −5.6 FC, the “GATA binding protein 4 (Gata4), Microarray FC” value [1] was 2.7 FC and the “Gem GTPase (Gem), Microarray FC” value [1] was −2.8 FC. For the same compound, the “Lipocalin 2 (Lcn2), Microarray FC” value [1] was −13.3 FC, the “Matrix metalloproteinase 3 (Mmp3), Microarray FC” value [1] was −2.9 FC and the “Metallothionein 1 (MT2), Microarray FC” value [1] was −5.5 FC. For the same compound, the “NADPH oxidase 4 (Nox4), Microarray FC” value [1] was −3.2 FC, the “Oncostatin receptor (Osmr), Microarray FC” value [1] was −2.6 FC and the “Phospholipase A2 group VII (platelet-activating factor acetylhydrolase, plasma) (Pla2g7), Microarray FC” value [1] was −2.2 FC. For the same compound, the “S100 calcium binding protein A8 (calgranulin A) (S100a8), Microarray FC” value [1] was −19.9 FC, the “S100 calcium binding protein A9 (calgranulin B) (S100a9), Microarray FC” value [1] was −14.0 FC and the “SET and MYND domain containing 1 (Smyd1), Microarray FC” value [1] was 2.7 FC. For the same compound, the “Serine protease inhibitor 2-2 (Spi2-2) (Serpin3n), Microarray FC” value [1] was −9.7 FC, the “Transformation related protein 53 inducible nuclear protein 1 (Trp53inp1), Microarray FC” value [1] was −3.5 FC and the “Tubulin, alpha 4 (Tuba4), Microarray FC” value [1] was 5.8 FC. For the same compound, the “FC Ankyrin repeat domain 47 (Ankrd47), C79906” value [2] was −2.0 fold, the “FC Procollagen, type IV, alpha 1 (Col4a1), AW536690” value [2] was −2.4 fold and the “FC cDNA, AV293532” value [3] was −1.5 fold. The “FC cDNA, BG073457” value [3] was −1.9 fold, the “FC cDNA, BI689897” value [3] was −1.8 fold and the “FC AT rich interactive domain 5B (Mrf1 like) (Arid5b), BB079486” value [4] was −2.0 fold. For the same compound, the “FC Actin binding LIM protein family, member 3 (Ablim3), BB667786” value [4] was −2.4 fold, the “FC Chloride intracellular channel 5 (Circ5), AA210377” value [4] was −1.7 fold and the “FC Fatty acid binding protein 4, adipocyte (Fabp4), BC002148” value [4] was −2.1 fold. For the same compound, the “FC cDNA, AK005293” value [4] was −1.8 fold, the “FC cDNA, BM215139” value [4] was −1.7 fold and the “FC Chitinase 3-like 3; chitinase 3-like 4, AY065557” value [5] was −2.4 fold. For the same compound, the “FC cDNA, BI683916” value [5] was −2.6 fold, the “FC Casitas B-lineage lymphoma b (Cblb), AV276986” value [6] was −1.7 fold and the “FC Choline kinase (Chk), NM_013490” value [6] was −1.9 fold. The “FC Coiled-coil domain containing 85A (Ccdc85a), AW060797” value [6] was −2.0 fold, the “FC Transglutaminase 2, C polypeptide (Tgm2), AW321975” value [6] was −1.8 fold and the “FC cDNA, AV228737” value [6] was −2.1 fold. For the same compound, the “FC cDNA, BB447627” value [6] was −1.6 fold, the “FC Adenosine deaminase (Ada), NM_007398” value [7] was −2.4 fold and the “FC CXC chemokine (angie2) (Cxcl13), AF030636” value [7] was −2.2 fold. The “FC EST, AV032095” value [7] was −1.8 fold, the “FC EST, BE630073” value [7] was −2.0 fold and the “FC cDNA, AI788755” value [7] was −2.3 fold. The “FC cDNA, BB431047” value [7] was −2.2 fold, the “FC Angiogenin, ribonuclease A family, member 1 (Ang1), AI385586” value (mouse heart, vs isoproterenol only (CH), CH vs normal 2.1, second AI385586 line) was −1.6 fold and the “FC Amine oxidase, copper containing 3 (Aoc3), NM_009675” value [8] was −2.4 fold. The “FC CD14 antigen (CD14), NM_009841” value [8] was −2.0 fold, the “FC Cyclin G2 (Ccng2), U95826” value [8] was −2.5 fold and the “FC Flavin containing monooxygenase 1 (Fmo1), BC011229” value [8] was −2.0 fold. The “FC RAN binding protein 9 (Ranbp9), mRNA., NM_019930” value [8] was −2.3 fold, the “FC cDNA, BB408123” value [8] was −2.0 fold and the “FC cDNA, BB769119” value [8] was −2.2 fold.
